# Source: ChEMBL document CHEMBL5661943, “ASAP - In vitro antiviral effect” (2024)
# Values joined by “and” are separate entries in the source; they are usually repeats but may differ in a detail not shown here. Equal values may be shown once.
# Key:
# [1] = system: Zika virus; assay: EC50 is reported via analysis of immunofluorescence staining. The assay has been performed by Icahn School of Medicine at Mount Sinai.; type: functional, organism-based, Chlorocebus sabaeus, VeroE6/TMPRSS2; conditions: Zika virus; for EC90: P-gp concentration 2 uM, P-gp inhibitor Elacidar
# [2] = system: Zika virus; assay: (§1) Functional CPE-based assay to measure dose dependent changes in antiviral-drug inhibitory efficacy against Zika virus MR766 in Vero E6 miRFP670 cells. Cells are treated with antiviral candidates that are serially diluted. EC50 is reported via analysis of MTS assay as a readout of CPE. The assay has been performed by KU Leuven.; type: organism-based, Chlorocebus sabaeus, Vero C1008
# [3] = system: Zika virus; assay: as §1, with “cells (cotreated with P-gp inhibitor, CP100356).” for “cells.”; type: organism-based, Chlorocebus sabaeus, Vero C1008; conditions: for EC90: P-gp concentration 500 nM, P-gp inhibitor CP100356
# [4] = system: dengue virus type 2; assay: Functional assay to measure dose dependent changes in antiviral-drug inhibitory efficacy against Dengue virus type 2 New Guinea C in Vero E6 miRFP670 cells (cotreated with P-gp inhibitor, CP100356). Cells are treated with antiviral candidates that are serially diluted, following infection, cells are fixed. EC50 is reported via analysis of fluorescence intensity using high-content imager. The …; type: organism-based, Chlorocebus sabaeus, Vero C1008
# [5] = system: dengue virus type 2; assay: Functional immunofluorescence assay to measure dose dependent changes in antiviral-drug inhibitory efficacy against Dengue virus type 2 Thailand/16681/84 in Vero E6/TMPRSS2 cells (cotreated with P-gp inhibitor, Elacridar). Cells are treated with antiviral candidates that are serially diluted, following infection, cells are fixed. EC50 is reported via analysis of immunofluorescence staining. The assay has been performed by Icahn School of Medicine at Mount Sinai.; type: organism-based, Chlorocebus sabaeus, VeroE6/TMPRSS2; conditions: Dengue virus
smiles,measurement,setting,value
CC(C)NC(=O)[C@H](Nc1ccc2c(c1)CNC2)c1cc(Cl)cc2[nH]ncc12,EC50,[1]; VeroE6/TMPRSS2,> 16.7 µM
same,EC90,"[1]; VeroE6/TMPRSS2, Maximum measured 103.391 %, Minimum measured 35.108 %",> 16.7 µM
same,EC50,"[2]; Zika virus, Vero C1008",> 50 µM
same,EC90,"[2]; Zika virus, Vero C1008, Maximum measured -0.394 %, Minimum measured -3.218 %",> 50 µM
same,EC90,"[3]; Baseline response 0 %, Hill slope 0.274, Maximum measured 19.104 %, Maximum response 100 %, Minimum measured -8.849 %, R squared 0.058",> 50 µM
same,EC90,"[3]; Baseline response 0 %, Hill slope 0.987, Maximum measured 78.474 %, Maximum response 100 %, Minimum measured 2.604 %, R squared 0.941",> 50 µM
same,EC90,"[3]; Zika virus, Vero C1008, Baseline response 0 %, Hill slope 2.014, Maximum measured 45.209 %, Maximum response 100 %, Minimum measured -1.87 %, R squared 0.776",> 50 µM
same,EC50,[3]; vero c1008,> 50 µM and 5.7 µM
same,EC90,"[4]; Dengue virus, Vero C1008, Maximum measured 125.719 %, Minimum measured 102.313 %, P-gp concentration 500 nM, P-gp inhibitor CP100356",> 50 µM
same,EC90,"[4]; Dengue virus, Vero C1008, Maximum measured 136.006 %, Minimum measured 106.773 %, P-gp concentration 500 nM, P-gp inhibitor CP100356",> 50 µM
same,EC90,"[4]; Dengue virus, Vero C1008, Maximum measured 137.073 %, Minimum measured 93.467 %, P-gp concentration 500 nM, P-gp inhibitor CP100356",> 50 µM
same,EC90,"[4]; Dengue virus, Vero C1008, Baseline response 0 %, Hill slope 0.455, Maximum measured 96.007 %, Maximum response 100 %, Minimum measured 82.569 %, P-gp concentration 500 nM, R squared 0.098, P-gp inhibitor CP100356",> 6.25 µM
same,EC50,[4]; vero c1008,> 50 µM
O=C1Cc2c(cccc2C(=O)Nc2ccc3c(c2)CNC3)N1,EC50,"[2]; Zika virus, Vero C1008",> 50 µM
same,EC90,"[2]; Zika virus, Vero C1008, Baseline response 0 %, Hill slope 0.284, Maximum measured 8.076 %, Maximum response 100 %, Minimum measured -0.771 %, R squared 0.143",> 50 µM
same,EC50,"[3]; Zika virus, Vero C1008",> 50 µM
same,EC90,"[3]; Zika virus, Vero C1008, Baseline response 0 %, Hill slope 0.131, Maximum measured 3.439 %, Maximum response 100 %, Minimum measured 0.392 %, R squared 0.059",> 50 µM
same,EC50,"[4]; Dengue virus, Vero C1008",> 50 µM
same,EC90,"[4]; Dengue virus, Vero C1008, Maximum measured 146.808 %, Minimum measured 90.834 %, P-gp concentration 500 nM, P-gp inhibitor CP100356",> 50 µM
O=C(Nc1ccc2c(c1)CNC2)c1cccc2[nH]ncc12,EC50,[5]; VeroE6/TMPRSS2,> 50 µM
same,EC90,"[5]; VeroE6/TMPRSS2, Maximum measured 158.189 %, Minimum measured 143.688 %, P-gp concentration 2 uM, P-gp inhibitor Elacidar",> 50 µM
same,EC50,"[2]; Zika virus, Vero C1008",< 0.391 µM
same,EC90,"[2]; Zika virus, Vero C1008, Baseline response 0 %, Hill slope -0.113, Maximum measured 48.96 %, Maximum response 100 %, Minimum measured -6.302 %, R squared 0.011",< 0.391 µM
same,EC50,"[4]; Dengue virus, Vero C1008",< 0.391 µM
same,EC90,"[4]; Dengue virus, Vero C1008, Baseline response 0 %, Hill slope 0.492, Maximum measured 128.823 %, Maximum response 100 %, Minimum measured 60.42 %, P-gp concentration 500 nM, R squared 0.116, P-gp inhibitor CP100356",< 0.391 µM
CCc1nc2c(C(=O)Nc3ccc4c(c3)CNC4)cc(Br)cc2[nH]1,EC50,[1]; VeroE6/TMPRSS2,> 5.56 µM
same,EC90,"[1]; VeroE6/TMPRSS2, Baseline response 0 %, Hill slope 0.058, Maximum measured 88.326 %, Maximum response 100 %, Minimum measured 53.216 %, R squared 0.024",> 5.56 µM
same,EC50,"[2]; Zika virus, Vero C1008",> 50 µM
same,EC90,"[2]; Zika virus, Vero C1008, Baseline response 0 %, Hill slope 0.303, Maximum measured 9.479 %, Maximum response 100 %, Minimum measured 2.16 %, R squared 0.852",> 50 µM
same,EC50,"[4]; Dengue virus, Vero C1008",> 50 µM
same,EC90,"[4]; Dengue virus, Vero C1008, Maximum measured 122.691 %, Minimum measured 98.084 %, P-gp concentration 500 nM, P-gp inhibitor CP100356",> 50 µM
N#C[C@H](Nc1ccc2c(c1)CNC2)c1cc(Cl)cc2[nH]ncc12,EC50,[1]; VeroE6/TMPRSS2,7.2 µM
same,EC90,"[1]; VeroE6/TMPRSS2, Baseline response 0 %, Hill slope -1.174, Maximum measured 85.278 %, Maximum response 50 %, Minimum measured 14.695 %, R squared 0.497",> 16.7 µM
same,EC50,"[2]; Zika virus, Vero C1008",42.5 µM
same,EC90,"[2]; Zika virus, Vero C1008, Baseline response 0 %, Hill slope 4.778, Maximum measured 68.413 %, Maximum response 100 %, Minimum measured -0.525 %, R squared 0.993",> 50 µM
same,EC90,"[2]; Zika virus, Vero C1008, Maximum measured -1.389 %, Minimum measured -3.372 %",> 50 µM
same,EC50,[2]; vero c1008,> 50 µM
same,EC50,"[4]; Dengue virus, Vero C1008",> 50 µM
same,EC90,"[4]; Dengue virus, Vero C1008, Maximum measured 117.716 %, Minimum measured 103.927 %, P-gp concentration 500 nM, P-gp inhibitor CP100356",> 50 µM
same,EC90,"[4]; Dengue virus, Vero C1008, Maximum measured 161.231 %, Minimum measured 110.618 %, P-gp concentration 500 nM, P-gp inhibitor CP100356",> 50 µM
NCCc1ccc([C@H]2C[C@@H]2c2cc(Cl)cc(NC(=O)OCc3ccccc3)c2)cc1,EC50,"[2]; Zika virus, Vero C1008",> 50 µM
same,EC90,"[2]; Zika virus, Vero C1008, Maximum measured 1.279 %, Minimum measured -5.481 %",> 50 µM
same,EC50,"[3]; Zika virus, Vero C1008",> 50 µM
same,EC90,"[3]; Zika virus, Vero C1008, Maximum measured 6.997 %, Minimum measured -5.737 %",> 50 µM
same,EC50,"[4]; Dengue virus, Vero C1008",> 3.12 µM
same,EC90,"[4]; Dengue virus, Vero C1008, Maximum measured 120.903 %, Minimum measured 100.357 %, P-gp concentration 500 nM, P-gp inhibitor CP100356",> 3.12 µM
same,EC90,"[4]; Dengue virus, Vero C1008, Maximum measured 221.095 %, Minimum measured 80.639 %, P-gp concentration 500 nM, P-gp inhibitor CP100356",> 6.25 µM
same,EC50,[4]; vero c1008,> 6.25 µM
O=C(Nc1cc(Cl)cc(C(=O)Nc2ccc(C3CCNCC3)cc2)c1)OCc1ccccc1,EC50,"[2]; Zika virus, Vero C1008",> 50 µM
same,EC90,"[2]; Zika virus, Vero C1008, Maximum measured […], Minimum measured -3.389 %",> 50 µM
same,EC50,"[3]; Zika virus, Vero C1008",> 50 µM
same,EC90,"[3]; Zika virus, Vero C1008, Maximum measured 2.883 %, Minimum measured -3.299 %",> 50 µM
same,EC90,"[4]; Baseline response 0 %, Hill slope -20.516, Maximum measured 137.543 %, Maximum response 100 %, Minimum measured 2.498 %, P-gp concentration 500 nM, R squared 0.862, P-gp inhibitor CP100356",1.68 µM
same,EC50,"[4]; Dengue virus, Vero C1008",2.86 µM
same,EC90,"[4]; Dengue virus, Vero C1008",3.23 µM
same,EC50,[4]; vero c1008,1.51 µM
O=C(Nc1cc(Cl)cc(-c2ccc3cc(C(=O)O)[nH]c3c2)c1)OCc1ccccc1,EC50,"[2]; Zika virus, Vero C1008",> 50 µM
same,EC90,"[2]; Zika virus, Vero C1008, Maximum measured -0.377 %, Minimum measured -2.566 %",> 50 µM
same,EC50,"[3]; Zika virus, Vero C1008",> 50 µM
same,EC90,"[3]; Zika virus, Vero C1008, Baseline response 0 %, Hill slope 0.219, Maximum measured 11.412 %, Maximum response 100 %, Minimum measured -1.306 %, R squared 0.087",> 50 µM
same,EC50,"[4]; Dengue virus, Vero C1008",27.6 µM
same,EC90,"[4]; Dengue virus, Vero C1008, Baseline response 0 %, Hill slope -2.588, Maximum measured 127.292 %, Maximum response 100 %, Minimum measured 18.339 %, P-gp concentration 500 nM, R squared 0.622, P-gp inhibitor CP100356",> 50 µM
CNC(=O)[C@H](Nc1cc(CN)cc(C(=O)O)c1)c1cc(Cl)cc(C2CC2)c1,EC50,"[2]; Zika virus, Vero C1008",> 50 µM
same,EC90,"[2]; Zika virus, Vero C1008, Maximum measured 1.859 %, Minimum measured -2.673 %",> 50 µM
same,EC50,"[4]; Dengue virus, Vero C1008",> 50 µM
same,EC90,"[4]; Dengue virus, Vero C1008, Maximum measured 120.74 %, Minimum measured 102.141 %, P-gp concentration 500 nM, P-gp inhibitor CP100356",> 50 µM
C[C@@]1(c2cccc(CN)c2)C[C@H]1c1cc(Cl)cc(NC(=O)OCc2ccccc2)c1,EC50,"[2]; Zika virus, Vero C1008",> 50 µM
same,EC90,"[2]; Zika virus, Vero C1008, Maximum measured 2.64 %, Minimum measured -3.015 %",> 50 µM
same,EC50,"[4]; Dengue virus, Vero C1008",2.11 µM
same,EC90,"[4]; Dengue virus, Vero C1008, Baseline response 0 %, Hill slope -1.211, Maximum measured 80.402 %, Maximum response 100 %, Minimum measured 6.127 %, P-gp concentration 500 nM, R squared 0.862, P-gp inhibitor CP100356",> 6.25 µM
O=C(O)c1cc2cc(-c3cc(Cl)cc(C4CC4)c3)ccc2[nH]1,EC50,"[2]; Zika virus, Vero C1008",> 50 µM
same,EC90,"[2]; Zika virus, Vero C1008, Baseline response 0 %, Hill slope 0.633, Maximum measured 10.894 %, Maximum response 100 %, Minimum measured 0.566 %, R squared 0.67",> 50 µM
same,EC50,"[3]; Zika virus, Vero C1008",> 50 µM
same,EC90,"[3]; Zika virus, Vero C1008, Baseline response 0 %, Hill slope 0.262, Maximum measured 7.755 %, Maximum response 100 %, Minimum measured -1.169 %, R squared 0.013",> 50 µM
same,EC50,"[4]; Dengue virus, Vero C1008",45.8 µM
same,EC90,"[4]; Dengue virus, Vero C1008, Baseline response 0 %, Hill slope -21.982, Maximum measured 163.66 %, Maximum response 100 %, Minimum measured 12.537 %, P-gp concentration 500 nM, R squared 0.152, P-gp inhibitor CP100356",> 50 µM
CCc1cc(Br)cc2c(Cc3ccc(-c4nnn[nH]4)cc3)c[nH]c12,EC50,"[2]; Zika virus, Vero C1008",> 50 µM
same,EC90,"[2]; Zika virus, Vero C1008, Baseline response 0 %, Hill slope -0.347, Maximum measured 5.052 %, Maximum response 100 %, Minimum measured -3.467 %, R squared 0.177",> 50 µM
same,EC90,"[2]; Zika virus, Vero C1008, Maximum measured -3.488 %, Minimum measured -8.239 %",> 50 µM
same,EC50,"[3]; Zika virus, Vero C1008",> 50 µM
same,EC90,"[3]; Zika virus, Vero C1008, Maximum measured 2.453 %, Minimum measured -6.07 %",> 50 µM
same,EC90,"[4]; Baseline response 0 %, Hill slope -20.83, Maximum measured 154.882 %, Maximum response 100 %, Minimum measured 18.569 %, P-gp concentration 500 nM, R squared 0.389, P-gp inhibitor CP100356",> 25 µM
same,EC50,"[4]; Dengue virus, Vero C1008",24.8 µM
same,EC90,"[4]; Dengue virus, Vero C1008, Baseline response 0 %, Hill slope -25.951, Maximum measured 114.444 %, Maximum response 100 %, Minimum measured 0.23 %, P-gp concentration 500 nM, R squared 0.943, P-gp inhibitor CP100356",26.9 µM
same,EC50,[4]; vero c1008,23.3 µM
